According to US11814352B2, “Salts formed by 2-(1-acyloxy-n-pentyl) benzoic acid and basic amino acid or aminoguanidine, and preparation method and application thereof” (JIANGSU KANION PHARMACEUTICAL CO., LTD., priority 2018, dated 2023):
“And” between values parts separate entries of the source, which are not always exact repeats. Equal values may be shown once. Marks after values point to notes of the source that are not given here.

Columns and labels:
[1] = test system: arteriovenous bypass thrombosis in rats; test: Effect on arteriovenous bypass thrombosis in rats; assay type: in vivo, SD rats; conditions: 10 mg/kg/day tail vein 7 days; for Dry weight of thrombus / Wet weight of thrombus: 2 h after last dose; for Inhibition rate (dry weight of thrombus) / Inhibition rate (wet weight of thrombus): vs model group
Protocol: Male SD rats, weighing 250-280 g, purchased from Beijing Vital River Laboratory Animal Technology Co., Ltd., raised in an SPF breeding environment with indoor temperature controlled at 23±2° C., and allowed to freely eat and drink. The total number of the animals is 64.
Model group: injected with the same volume of normal saline (containing 1% DMSO) through the tail vein, and administered continuously for 7 days. The test was started 2 h after the last dose (n=8).
The dose of all drugs was 10 mg/kg/day. The drugs were formulated into normal saline solutions containing 1% DMSO, and injected through the tail vein for 7 consecutive days. The test was started 2 hours after the last dose (n=8).
The rats were intraperitoneally injected with a 3% pentobarbital sodium solution (30 mg/kg). After anesthesia, the rats were immobilized in the supine position, and a median cervical incision was made to separate the right common carotid artery and left external jugular vein. A 6 cm long suture was put in the middle of a polyethylene tube (the suture needs to be weighed before being put in the tube), and the polyethylene tube was filled with heparin saline (50 U/mL). The polyethylene tube was inserted into the separated blood vessels to make the artery and vein form a loop. After 15 min of circulation of the blood flow, the suture was taken out, and the suture with thrombus was collected and weighed immediately. Then, after the suture was dried at room temperature for 24 h, the dry weight was determined. The total weight minus the weight of the suture was the wet weight of the thrombus, and the dry weight minus the weight of the suture was the dry weight of the thrombus.

MCAO rats = test: Cerebral infarction, cerebral edema and nerve function of rats with focal cerebral ischemia (MCAO); assay type: in vivo, SD rats
Protocol: The total number of the animals was 88.
Sham operation group: equal volume of normal saline (containing 1% DMSO) (iv. 3 days), TTC, cerebral edema and neurological function score (n=8); […]
The middle cerebral arteries of the rats were blocked by a suture-occluded method, and reperfused after 2 h. […] All drugs were formulated into normal saline solutions containing 1% DMSO for administration, and the duration of administration was controlled at approximately 1 min. […] 2 h after the last administration, the neurological defect scores were firstly obtained, and then the rats of each group were sacrificed. The whole brains were taken out and weighed (wet weight), TTC stained, and dried to determine the effects of the compounds on cerebral infarction and cerebral edema.
2 h after the last administration, the neurological defects of the animals were graded and scored by the Longa's method.
After the neurobehavioral examination was completed, four coronal incisions were made on the whole brains of the rats on the optic chiasma and 2 mm anteroposterior positions of the optic chiasma. After the whole brains were cut into five slices, the brain slices were quickly placed in 5 ml of phosphate buffer solution containing 2% TTC, and incubated at 37° C. in the dark. In the incubation process, the brain slices were turned once every 5 min. After 10 min of incubation, the brain slices were taken out and pictures were taken with a digital camera (Olympus C-4000, Japan).
The calculation formula of brain water content is as follows: Water content of brain tissue (%)=(wet weight of brain tissue−dry weight of brain tissue)/wet weight of brain tissue×100%; Cerebral edema rate (%)=water content of brain tissue of each group (%)−water content of brain tissue of sham operation group (%)/water content of brain tissue of sham operation group (%)×100%; Inhibition rate of cerebral edema (%)=(rate of cerebral edema of model group (%)−rate of cerebral edema of administration group (%))/rate of cerebral edema of model group (%)×100%.

[2] = test system: AA induced platelet aggregation; test: In vitro anti-platelet aggregation, AA induced (turbidimetry, PRP); assay type: cell-based, rabbits; conditions: read-out: IC50 AA (1 mM); rabbit PRP, inducer AA 1 mM, 37° C.
Protocol: (§1) The animals were used for experiments after 1 week.
(§2) The common carotid artery was separated, and a polyethylene tube was inserted into the common carotid artery to collect blood. […] The upper beige suspension was pipetted to obtain the platelet-rich plasma (PRP). […] The PRP was adjusted with the PPP to make the platelet count at 1×10^8/mL.
(§3) 260 μL of platelet-rich plasma (PRP) was added into a turbidimetric tube. Then 10 μL of test compounds with different concentrations, positive control drugs or normal saline were separately added, and the plasma was incubated at 37° C. for 5 min. Then 30 μL of inducers were added in sequence. The final concentration of an inducer ADP is 10 μM, and the final concentration of an inducer AA is 1 mM. […] Inhibition rate of platelet aggregation (IRPA)=(platelet aggregation rate of the control group−platelet aggregation rate of the experimental group)/platelet aggregation rate of the control group×100%.

[3] = literature value; cited from earlier work
[4] = Solubility test (saturated solubility in water); assay type: physicochemical; conditions: 25±2° C.
Protocol: Test method: 10 mg of a test sample (solid was ground into fine powder) was weighed and added to a certain amount of solvent at 25±2° C. (the temperature of a water bath is controlled at 25° C.), and the solution was shaken vigorously for 30 s every 5 min. The dissolution was observed within 30 min. When there were no visible solute particles or droplets, the test sample was regarded as completely dissolved.

[5] = test system: ADP induced platelet aggregation; test: In vitro anti-platelet aggregation, ADP induced (turbidimetry, PRP); assay type: cell-based, rabbits; conditions: read-out: IC50 ADP (10 μM); rabbit PRP, inducer ADP 10 μM, 37° C.
Protocol: as §1, §2, §3

[6] = target: hERG potassium channel of CHO-hERG cells (Homo sapiens, UniProt Q12809); test: Effect on hERG potassium channel (automatic patch clamp); conditions: CHO-hERG cells, maximum concentration
[7] = Concentration of metabolites in rat brain tissue after intravenous injection of I1s; assay type: in vivo
[8] = Pharmacokinetics of metabolites in rat plasma after intravenous injection of I1s; assay type: in vivo, SD male rats; conditions: metabolite in rat plasma after I1s 25 mg/kg tail vein; rats 1-3; listed as M4
Protocol: (§4) 12 clean SD male rats, provided by Qinglongshan Animal Breeding Farm in Jiangning District, Nanjing. The production license number is SCXK (Jiangsu) 2017-0001. The body weight of the rats ranges from 180 to 220 g. The rats were used after being raised in the laboratory of an experimental animal center for 2 days after purchase, fasted for 12 hours before administration and 6 hours after administration, and were allowed to freely drink during the test period.
(§5) The concentration of the original drugs and metabolites in the rat blood were determined by LC-MS/MS, and WinNonlin pharmacokinetics professional software and a statistical moment method were used for calculation to obtain the corresponding pharmacokinetic parameters.

[9] = Concentration of metabolites in rat brain tissue after intravenous injection of I1s; assay type: in vivo; conditions: for Concentration in brain tissue (single rats): listed as M4
Protocol: as §4, §5

[10] = MCAO rats, 10 mg/kg/day iv 3 days (combinations equimolar), first dose 2 h after reperfusion
[11] = 0.5 h after intravenous injection of I1s
[12] = 1 h after intravenous injection of I1s
[13] = 6 h after intravenous injection of I1s

hERG potassium channel of CHO-hERG cells, sequence (Q12809 whole entry): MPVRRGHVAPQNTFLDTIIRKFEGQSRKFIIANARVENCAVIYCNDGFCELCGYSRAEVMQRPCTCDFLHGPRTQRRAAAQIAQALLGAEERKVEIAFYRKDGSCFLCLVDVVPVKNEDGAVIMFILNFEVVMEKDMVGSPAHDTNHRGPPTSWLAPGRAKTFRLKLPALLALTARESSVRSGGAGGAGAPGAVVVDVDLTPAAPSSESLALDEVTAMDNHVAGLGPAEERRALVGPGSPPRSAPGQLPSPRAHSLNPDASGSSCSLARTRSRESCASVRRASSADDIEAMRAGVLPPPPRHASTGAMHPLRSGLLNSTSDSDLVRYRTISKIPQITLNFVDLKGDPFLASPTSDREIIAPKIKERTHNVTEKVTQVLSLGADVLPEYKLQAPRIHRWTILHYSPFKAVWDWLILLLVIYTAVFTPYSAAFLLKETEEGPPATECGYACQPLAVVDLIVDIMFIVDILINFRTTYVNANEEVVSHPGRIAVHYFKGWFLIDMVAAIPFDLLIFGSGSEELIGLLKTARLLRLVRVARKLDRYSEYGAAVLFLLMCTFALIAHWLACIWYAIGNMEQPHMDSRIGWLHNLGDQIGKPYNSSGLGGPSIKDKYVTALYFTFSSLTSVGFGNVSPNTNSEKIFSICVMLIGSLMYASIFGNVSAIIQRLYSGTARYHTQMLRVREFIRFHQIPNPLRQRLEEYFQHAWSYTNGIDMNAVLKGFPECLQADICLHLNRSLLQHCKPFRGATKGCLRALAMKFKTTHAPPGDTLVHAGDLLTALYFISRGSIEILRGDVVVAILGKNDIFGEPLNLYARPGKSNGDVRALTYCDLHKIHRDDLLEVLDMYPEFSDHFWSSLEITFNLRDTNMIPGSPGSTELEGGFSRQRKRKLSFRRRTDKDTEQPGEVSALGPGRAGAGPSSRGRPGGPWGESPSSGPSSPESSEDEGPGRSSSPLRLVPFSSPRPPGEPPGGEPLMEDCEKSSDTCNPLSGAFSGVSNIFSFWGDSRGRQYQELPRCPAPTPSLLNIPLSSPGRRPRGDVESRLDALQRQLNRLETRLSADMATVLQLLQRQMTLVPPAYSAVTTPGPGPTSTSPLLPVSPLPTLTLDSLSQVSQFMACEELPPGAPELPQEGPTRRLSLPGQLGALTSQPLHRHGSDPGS

In the case of `CCCCC(O)c1ccccc1C(=O)[O-].[K+]` (racemic) [PHPB, Potassium (R/S)-2-(1-hydroxy-n-pentyl) benzoate], the “Dry weight of thrombus” value [1] is reported as 8.90 ± 0.45, the “Wet weight of thrombus” value [1] is reported as 30.64 ± 10.21 and the “Inhibition rate (dry weight of thrombus)” value [1] is reported as 11.32%. The “Inhibition rate (wet weight of thrombus)” value [1] was 15.39%, the Cerebral edema (MCAO rats; [10]) was 10.71 ± 3.55% and the Infarct volume (MCAO rats; [10]) was 20.23 ± 3.02%. For the same molecule, the “Inhibition rate of cerebral edema” value (MCAO rats; [10]) was 33.23%, the “Inhibition rate of infarct volume” value (MCAO rats; [10]) was 51.66% and the IC50 [2] was 350 ± 90 µM. The half-life [3] was 45 min, the “Saturated solubility in H2O, Mean” value [4] was 147.07 mg/mL and the “Saturated solubility in H2O, dissolved sample amount (single determinations)” value [4] was 148.30 mg/mL and 148.04 mg/mL and 145.97 mg/mL and 145.98 mg/mL. The IC50 [5] was 960 ± 70 µM.

For `CCCC[C@@H]1OC(=O)c2ccccc21` [(S)-NBP, (S)-butylphthalide], the “Dry weight of thrombus” value [1] was 7.44 ± 0.37, the “Wet weight of thrombus” value [1] was 24.18 ± 1.02 and the “Inhibition rate (dry weight of thrombus)” value [1] was 25.95^## %. The “Inhibition rate (wet weight of thrombus)” value [1] was 33.24^## %, the “inhibition rate of hERG potassium channel at the maximum concentration” value [6] was 41.45% and the Cerebral edema (MCAO rats; rat, in vivo, iv, 10 mg/kg/day) was 4.45 ± 4.58%. The Infarct volume (MCAO rats; rat, in vivo, iv, 10 mg/kg/day) was 14.18 ± 2.69%, the “Inhibition rate of cerebral edema” value (MCAO rats; rat, in vivo, iv, 10 mg/kg/day) was 72.28% and the “Inhibition rate of infarct volume” value (MCAO rats; rat, in vivo, iv, 10 mg/kg/day) was 66.12%. The IC50 [2] was 500 ± 40 µM, the “Concentration in brain tissue, Mean” value [7, 11] was 605.79 ng/g and the “Concentration in brain tissue, Mean” value [7, 12] was 125.75 ng/g. For the same molecule, the “Concentration in brain tissue, Mean” value [7, 13] was 36.56 ng/g, the “Saturated solubility in H2O, Mean” value [4] was 0.54 mg/mL and the “AUC(0-t)” value [8] was 32828.9 ng·h/mL and 40061.1 ng·h/mL and 34160.8 ng·h/mL. For the same molecule, the “AUC(0-∞)” value [8] was 32988.3 ng·h/mL and 40153.8 ng·h/mL and 34287.8 ng·h/mL, the Cl [8] was 12.631 mL/min/kg and 10.377 mL/min/kg and 12.152 mL/min/kg and the Cmax [8] was 52.5136 µg/mL and 69.7952 µg/mL and 65.7002 µg/mL. For the same molecule, the Vz [8] was 3.704 L/kg and 2.6838 L/kg and 3.6105 L/kg, the “Concentration in brain tissue (single rats)” value (“Concentration … (single rats)” below) [9, 11] was 556.35 ng/g and 627.76 ng/g and 633.25 ng/g and the “Concentration … (single rats)” value [9, 12] was 131.66 ng/g and 119.84 ng/g and 388.42* ng/g. The “Concentration … (single rats)” value [9, 13] was 27.06 ng/g and 30.85 ng/g and 51.78 ng/g, the “Passage through the blood-brain barrier” value ([9]; detected in rat brain tissue after iv I1s) was “could all pass through the blood-brain barrier” and the IC50 [5] was 1290 ± 110 µM.
